Laboratory results published in patent publication US9198879B2, “Pharmacologically optimized multimodal drug delivery system for nordihydroguiaretic acid (NDGA)” (Napo Pharmaceuticals, Inc., priority 2011, dated 2015).
“Also recorded” adds a separate entry of the source.

Legend:
Fat/STZ rats = test: Fat/STZ rat model, oral NDGA in CMC, PEG or Gelucire vehicles: glucose, triglycerides, FFA; type: in vivo; conditions: for glucose: versus 366+/−32; for glucose levels: 250 mg/kg twice daily
Description: (§1) In these studies, a variety of rodent models were used to evaluate the glucose-lowering properties and its effects on lipids, such as lowering of triglycerides. NDGA was administered orally to animals over a wide range of doses (10 to 350) mg/kg.
In this experiment, NDGA was dissolved in the following: • CMC: 0.25% carboxymethylcellulose • Gelucire: “Gelucire 44/14 (Gatefosse, Wildwood, N.J.; a well-defined mixture of mono-, di-, and tri-glycerides and mono- and di-fatty acid esters of polyethylene glycol) • PEG: 85% polyethylenene glycol, 10% tween and 5% propanediol
In this study, the following animal models where used: • Db/db mice: homozygous mice are a model of obesity, diabetes and dyslipedemia where their leptin receptor activity is deficient. • Ob/ob mice: obese mice with diabetes. • Db/lean mice: heterozygous mice that are not diabetic. • Fat/STZ rats: non-genetically diabetic overweight rats that are fed diets enriched in fat and made hyperglycemic by chemically removing their pancreatic function to reduce insulin production by treating them with streptozotocin (STZ). • Fructose/STZ rats: non-diabetic rats that are fed diets enriched in fructose and made hyperglycemic by treating them with STZ. • ZDF rats: obese and hyperglycemic rats with other metabolic disorders.
Baseline glucose and triglyceride concentrations, where appropriate, were measured for both diabetic and normal animals.

rodent models = test: Oral NDGA in a variety of rodent models (model not given); type: in vivo
Description: as §1
NDGA was effective at lowering glucose when formulated in either aqueous or lipophilic vehicles to varying degrees of efficacy.

[1] = tested on: high fat diet-fed/STZ rat model; test: Liver and muscle glycogen content after NDGA treatment; type: in vivo
Description: In the high fat diet-fed/STZ rat model, liver and muscle glycogen content was measured after treatment with NDGA versus vehicle. Treatment with NDGA had no effect on muscle glycogen levels when compared to control.

rat adipocytes = conditions: cited from earlier work
[2] = tested on: fructose-fed and fat-fed/STZ rat models; test: NDGA versus metformin at equimolar doses in fructose-fed and fat-fed/STZ rat models; type: in vivo
From the text: NDGA has been studied by administering it orally to animals to determine its effectiveness for lowering glucose, free fatty acid (FFA) and triglyceride levels. […] See Example 2 below. […] There was no significant baseline difference between the NDGA and metformin groups.
In one such study, the effects of NDGA and metformin as a control drug for treatment of diabetes were studied in a non-diabetic model of hypertriglyceridemia (fructose-fed) and a non-genetic, (i.e., streptozotocin (STZ) treated) model of diabetes. […] See FIGS. 2 (glucose) and 3 (triglycerides).

cecum = conditions: in vivo; cited from earlier work
[3] = equimolar doses of NDGA or metformin

CC(Cc1ccc(O)c(O)c1)C(C)Cc1ccc(O)c(O)c1 (stereo not drawn) [NDGA, nordihydroguaiaretic acid]
triglyceride levels (Fat/STZ rats; Fat/STZ rat, 40 mg/Kg once daily (QD), CMC delivery vehicle, 327 +/−25 without NDGA, no significant lowering): 270 ± 26 mg/dL | triglyceride levels (Fat/STZ rats; Fat/STZ rat, 40 mg/kg QD, Gelucire delivery vehicle, 674+/−84 without NDGA, significant lowering): 312 ± 38 mg/dL | glucose (Fat/STZ rats; Fat/STZ rat, 40 mg/kg QD, Gelucire vehicle): 299 ± 25 mg/dL | glucose (Fat/STZ rats; Fat/STZ rat, 250 mg/kg QD, Gelucire vehicle): 325 ± 26 mg/dL | triglyceride (Fat/STZ rats; Fat/STZ rat, 250 mg/kg QD, Gelucire vehicle, versus 674+/−84): 249 ± 42 mg/dL | glucose levels (Fat/STZ rats; Fat/STZ rat, Gelucire vehicle, 497+/−22 without NDGA, significant lowering): 380+/−28 | glucose levels (Fat/STZ rats; Fat/STZ rat, PEG delivery vehicle, 393+/−20 without NDGA, no significant lowering): 364+/−20 | glucose lowering (Fat/STZ rats; Fat/STZ rats, given orally): significantly lowers glucose | free fatty acid (FFA) concentrations (Fat/STZ rats; fat-fed/STZ rats): decreases free fatty acid (FFA) concentrations | plasma triglyceride lowering (Fat/STZ rats; fat-fed/STZ rats): significantly and dramatically lowered plasma triglycerides | glucose lowering (Fat/STZ rats; fat/STZ rat, single daily dose of 150 mg/kg): ineffective in lowering glucose | triglyceride lowering (rodent models; CMC, PEG or Gelucire vehicles, doses as low as 10 mg/kg twice per day): lowered triglyceride concentrations | triglyceride lowering (rodent models; administered orally just once per day): lowered triglycerides | insulin concentrations (rodent models; highest dose studied, 350 mg/kg twice daily): did not result in increased insulin concentrations | glucose lowering (rodent models; once daily administration): generally ineffective at lowering glucose concentrations | effect on muscle glycogen levels ([1]; compared to control): no effect | reduction of liver glycogen concentrations ([1]; versus vehicle): approximately 75% | glucose transport (rat adipocytes; adipocytes, in vitro): directly stimulates glucose transport | isoproterenol-induced lipolysis (rat adipocytes; rat adipocytes, in vitro (Gowri et al., 1999)): inhibition | change in insulin concentrations [2, 3]: without changing insulin concentration; also recorded: without any change in insulin concentrations | glucose lowering in comparison to the vehicle control [2, 3]: significantly lowered glucose | triglyceride lowering in comparison to the vehicle control [2, 3]: significantly lowered triglycerides | lowering of triglyceride concentrations in comparison to vehicle ([2]; equimolar dosing with metformin): 80% | lesions in the cecum (cecum): known to cause lesions in the cecum
